Assays:
Type in all cases: binding
[1] = molecular target: T1, Arabidopsis TGD4, DsRED-TGD4-His, full-length TGD4 1-479 (SEQ ID NO: 132) (Arabidopsis thaliana, UniProt Q9M903); experiment: Liposome association assay, DsRED-TGD4-His; conditions: pH range of 6.4-7.8, FIG. 18E
T1 sequence (Q9M903 1-479): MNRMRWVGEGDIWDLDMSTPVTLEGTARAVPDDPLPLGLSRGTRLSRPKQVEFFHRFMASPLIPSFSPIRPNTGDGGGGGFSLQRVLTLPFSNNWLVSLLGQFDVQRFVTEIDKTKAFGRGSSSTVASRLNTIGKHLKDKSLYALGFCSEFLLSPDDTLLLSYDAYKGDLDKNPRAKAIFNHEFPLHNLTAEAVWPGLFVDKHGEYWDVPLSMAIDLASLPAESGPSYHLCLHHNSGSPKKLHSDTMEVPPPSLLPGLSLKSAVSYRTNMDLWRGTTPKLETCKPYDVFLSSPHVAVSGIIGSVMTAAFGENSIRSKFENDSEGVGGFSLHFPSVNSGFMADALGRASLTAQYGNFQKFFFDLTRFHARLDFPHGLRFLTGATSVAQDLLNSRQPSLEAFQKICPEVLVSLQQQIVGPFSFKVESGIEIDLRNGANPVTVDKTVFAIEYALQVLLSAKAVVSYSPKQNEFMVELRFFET
Procedure: (§1) Liposome Association Assay:
(§2) The liposome association assay was adapted from (Awai et al., 2006, Lu and Benning, 2009) with minor modifications. Dioleoyl-PtdCho and PtdOH with different acyl chain lengths and desaturation levels were used for making liposomes. In other liposomes 1-palmitoyl-2-(12-((7-nitro-2-1,3-benzoxadiazol-4-yl)amino)dodecanoyl)-sn-glycero-3-phosphate (NBD-PtdOH; Avanti, Alabaster, Ala.) was used. The lipids were mixed at indicated ratios to give a total lipid amount of 250 μg. The lipids were dried under a stream of nitrogen, resuspended in 0.5 ml TBS buffer with 0.2 M choline chloride and hydrated at 37° C. for 1 hour followed by vigorous vortexing for 2 minutes. The resulting multi-lamellar vesicles were centrifuged at 13,000×g for 10 minutes and then washed once with TBS buffer containing 0.2 M choline chloride. The liposomes were resuspended into 100 μl TBS buffer with 0.2 M choline chloride and incubated with 2 μg purified DsRED-TGD4-His protein and its derivatives. The protein liposome mixture was incubated on ice for 30 minutes followed by centrifugation at 13,000×g for 10 minutes and two washes with 500 μl TBS containing 0.2 M choline chloride. The resulting protein-liposome pellet was resuspended in 20 μl 2× Laemmli buffer (Laemmli, 1970) and processed by SDS-PAGE (Shapiro and Maizel, 1969).

[2] = molecular target: T2, Arabidopsis TGD4, TGD4N-DsRED-His (N-terminal fragment 1-286, SEQ ID NO:130) (Arabidopsis thaliana, UniProt Q9M903); experiment: Liposome association assay, TGD4N-DsRED-His; conditions: dioleoyl-PtdOH/dioleoyl-PtdCho liposomes, 0 to 80% PtdOH, FIG. 19B
T2 construct: made in house; host or cells: Escherichia coli BL21 (DE3)
T2 sequence (Q9M903 1-286): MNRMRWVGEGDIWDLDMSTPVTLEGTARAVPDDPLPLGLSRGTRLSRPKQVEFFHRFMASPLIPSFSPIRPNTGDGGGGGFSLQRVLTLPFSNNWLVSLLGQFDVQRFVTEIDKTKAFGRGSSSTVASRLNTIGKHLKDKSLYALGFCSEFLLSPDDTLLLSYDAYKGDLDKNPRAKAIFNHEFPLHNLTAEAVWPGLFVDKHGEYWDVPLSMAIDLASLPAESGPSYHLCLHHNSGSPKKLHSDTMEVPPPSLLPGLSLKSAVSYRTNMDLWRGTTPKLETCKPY
Procedure: as §1, §2

[3] = molecular target: T3, Arabidopsis TGD2, DsRed-TGD2C T5 (residues 119-300, SEQ ID NO:28) (Arabidopsis thaliana, UniProt Q9LTR2); experiment: Liposome-association assay, TGD2C T5 (119-300); conditions: FIG. 3C
T3 sequence (Q9LTR2 119-300): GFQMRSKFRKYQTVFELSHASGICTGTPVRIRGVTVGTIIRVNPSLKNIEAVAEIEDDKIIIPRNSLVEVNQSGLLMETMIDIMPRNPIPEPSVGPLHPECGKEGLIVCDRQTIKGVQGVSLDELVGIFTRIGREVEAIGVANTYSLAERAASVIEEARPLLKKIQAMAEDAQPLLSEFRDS
Procedure: The liposome association assay was performed as previously reported. (31). Briefly, lipids (dioleoyl-phosphatidylcholine, DOPC or dioleoyl-PA, DOPA) were incubated in TBS (50 mM Tris-HCl, pH 7; 0.1 M NaCl) at 37° C. for an hour followed by vigorous vortexing for 5 min. The liposomes were precipitated at 20,000 g and washed twice with ice-cold TBS.
Liposomes (200 μg) were mixed with purified DsRed-TGD2 fusion protein and TBS to make a final 100 μL solution. The mixture was incubated at 30° C. for 30 min and washed twice with ice-cold TBS by centrifugation at 20,000 g at 4° C. The liposome pellet mixed with sample buffer was analyzed by SDS-PAGE (28). Immuno-detection of the His-tagged protein was accomplished using the above mentioned Penta-His antibody at 1:15,000 and the anti mouse antibody at 1:75,000 dilution.
The protein band was visualized by chemiluminescent detection kit from Sigma. The autoradiography film was scanned, distinct protein bands were quantified using computer software Multi Gauge V3.0 (Fujifilm USA, Valhalla, N.Y.) and resulted data were plotted and analyzed by OriginPro8 (Origin lab corporation, Northampton, Mass.).

[4] = molecular target: T1, Arabidopsis TGD4, DsRED-TGD4-His, full-length TGD4 1-479 (SEQ ID NO: 132); experiment: Protein-lipid overlay assay, DsRED-TGD4-His; conditions: commercial phospholipid membrane, FIG. 18A
Procedure: Protein-Lipid Overlay Assay:
The protein-lipid overlay assay was modified from (Awai et al., 2006, Lu and Benning, 2009). Phosphoinositol-4,5-bisphosphate PIP2) lipid strips were purchased from Echelon Biosciences (Salt Lake City, Utah). Lipids spotted onto membranes were purchased from Avanti Polar Lipids (Alabaster, Al.) as well as Larodan Fine Chemicals (Malmo, Sweden). Lipids (10 nmol) were suspended in 20 μl spotting buffer (250 μl chloroform, 500 μl methanol, 200 μl 50 mM HCl, 2 μl 1% (w/v) Ponseau S (Sigma, St. Louis, Mo.)) and spotted onto Amersham Hybond-C Extra membranes (GE Healthcare, Piscataway, N.J.) followed by drying for 1 hour in a fume hood. The lipid membranes were then blocked in 3% (w/v) bovine serum albumin (BSA) in TBST buffer (TBS with 0.25% (v/v) Tween 20) for 2 hours at room temperature. Purified DsRED-TGD4-His fusion proteins were added at 1 μg/ml final concentration and incubated overnight at 4° C. followed by washing 3 times in TBST. Lipid membranes were then incubated with 1:2000 diluted His antibody (Sigma) in blocking buffer for 2 hours at room temperature followed by 2 washes with TBST. The membranes were processed for immunoblotting as described below.

In the case of `CCCCCCCC/C=C\CCCCCCCC(=O)OC[C@H](COP(=O)(O)O)OC(=O)CCCCCCC/C=C\CCCCCCCC` [PA, phosphatidic acid], the “effect of pH on PtdOH binding” value [1] is reported as “not affected”, the PtdOH binding affinity [2] is reported as “comparable to the full-length protein DsRED-TGD4-His” and the PA binding [3] is reported as “strong binding”. The “binding to lipids on membranes” value [4] was “specifically bind”.

— patent US8629251B2, “Specific detection and quantification of phosphatidic acid using an Arabidopsis trigalactosyldiacylglycerol-4 (TGD4) protein” (Board of Trustees of Michigan State University, priority 2008, dated 2014)
